From ChEMBL document CHEMBL4831514, “Novel betulin dicarboxylic acid ester derivatives as potent antiviral agents: Design, synthesis, biological evaluation, structure-activity relationship and in-silico study” (Eur J Med Chem, 2021)
pEC50: −log10 of the molar value. The source made the active and inactive calls. The calls are words filed in the database; no cut-off is given here.

tested on: Human alphaherpesvirus 1; assay: Antiviral activity against Human herpesvirus 1 MacIntyre infected in A549 cells assessed as reduction in virus titer preincubated for 24 hrs followed by viral infection and measured after 72 hrs by microscopic analysis; assay type: functional, organism-based; conditions: not given

**Q.** With `C#CCNC(=O)c1ccccc1C(=O)OC[C@]12CC[C@@H](C(=C)C)[C@@H]1[C@H]1CC[C@@H]3[C@@]4(C)CC[C@H](O)C(C)(C)[C@@H]4CC[C@@]3(C)[C@]1(C)CC2` as the compound, how does the Activity read?
**A.** inactive

**Q.** For `C=C(C)[C@@H]1CC[C@]2(COC(=O)c3cccc(C(=O)N4CCCCC4)c3)CC[C@]3(C)[C@H](CC[C@@H]4[C@@]5(C)CC[C@H](O)C(C)(C)[C@@H]5CC[C@]43C)[C@@H]12`, which Activity is on record?
**A.** inactive

tested on: not listed separately; assay: (§1) Cytotoxicity against human A549 cells assessed as reduction in cell viability incubated for 48 hrs by MTT assay; assay type: cell-based; conditions: A549 cells

**Q.** Which CC50 at 48 h does the source give for `C#CCNC(=O)c1ccccc1C(=O)OC[C@]12CC[C@@H](C(=C)C)[C@@H]1[C@H]1CC[C@@H]3[C@@]4(C)CC[C@H](O)C(C)(C)[C@@H]4CC[C@@]3(C)[C@]1(C)CC2` here?
**A.** 159 µM

**Q.** Which CC50 at 48 h does the source give for `C=C(C)[C@@H]1CC[C@]2(COC(=O)c3cccc(C(=O)N4CCCCC4)c3)CC[C@]3(C)[C@H](CC[C@@H]4[C@@]5(C)CC[C@H](O)C(C)(C)[C@@H]5CC[C@]43C)[C@@H]12` here?
**A.** 536 µM

tested on: A549; assay: as §1; assay type: cell-based; conditions: a549, 48 h

**Q.** For `C#CCNC(=O)c1ccccc1C(=O)OC[C@]12CC[C@@H](C(=C)C)[C@@H]1[C@H]1CC[C@@H]3[C@@]4(C)CC[C@H](O)C(C)(C)[C@@H]4CC[C@@]3(C)[C@]1(C)CC2`, which CC20 is on record?
**A.** 39.81 µM

**Q.** For `C=C(C)[C@@H]1CC[C@]2(COC(=O)c3cccc(C(=O)N4CCCCC4)c3)CC[C@]3(C)[C@H](CC[C@@H]4[C@@]5(C)CC[C@H](O)C(C)(C)[C@@H]5CC[C@]43C)[C@@H]12`, which CC20 is on record?
**A.** 130.89 µM

tested on: MDCK; assay: Cytotoxicity against MDCK cells assessed as reduction in cell viability incubated for 72 hrs by MTT assay; assay type: cell-based, Canis lupus familiaris; conditions: dog, mdck, 72 h

**Q.** With `C#CCNC(=O)c1ccccc1C(=O)OC[C@]12CC[C@@H](C(=C)C)[C@@H]1[C@H]1CC[C@@H]3[C@@]4(C)CC[C@H](O)C(C)(C)[C@@H]4CC[C@@]3(C)[C@]1(C)CC2` as the compound, how does the CC20 read?
**A.** 159.24 µM

**Q.** Which CC20 does the source give for `C=C(C)[C@@H]1CC[C@]2(COC(=O)c3cccc(C(=O)N4CCCCC4)c3)CC[C@]3(C)[C@H](CC[C@@H]4[C@@]5(C)CC[C@H](O)C(C)(C)[C@@H]5CC[C@]43C)[C@@H]12` here?
**A.** 130.89 µM

tested on: Human adenovirus 5; assay: Antiviral activity against Human adenovirus 5 Adenoid 75 infected in A549 cells assessed as inhibition of viral adsorption at early stage of replication treated for 1 hr during viral infection followed by replacement with fresh medium and measured after 72 hrs by MTT assay; assay type: functional, organism-based; conditions: not given

**Q.** For `C#CCNC(=O)c1ccccc1C(=O)OC[C@]12CC[C@@H](C(=C)C)[C@@H]1[C@H]1CC[C@@H]3[C@@]4(C)CC[C@H](O)C(C)(C)[C@@H]4CC[C@@]3(C)[C@]1(C)CC2`, which Activity is on record?
**A.** inactive

**Q.** With `C=C(C)[C@@H]1CC[C@]2(COC(=O)c3cccc(C(=O)N4CCCCC4)c3)CC[C@]3(C)[C@H](CC[C@@H]4[C@@]5(C)CC[C@H](O)C(C)(C)[C@@H]5CC[C@]43C)[C@@H]12` as the compound, how does the Activity read?
**A.** inactive

tested on: Enterovirus E; assay: Potency index, ratio of […] EC50 to test compound EC50 for antiviral activity against Enterovirus E LCR-4 infected in A549 cells assessed as reduction in virus titer preincubated for 24 hrs followed by viral infection and measured after 72 hrs by microscopic analysis; assay type: functional; conditions: time 96 hrs

**Q.** Which “Ratio EC50” value does the source give for `C#CCNC(=O)c1ccccc1C(=O)OC[C@]12CC[C@@H](C(=C)C)[C@@H]1[C@H]1CC[C@@H]3[C@@]4(C)CC[C@H](O)C(C)(C)[C@@H]4CC[C@@]3(C)[C@]1(C)CC2` here?
**A.** 11

**Q.** Which “Ratio EC50” value does the source give for `C=C(C)[C@@H]1CC[C@]2(COC(=O)c3cccc(C(=O)N4CCCCC4)c3)CC[C@]3(C)[C@H](CC[C@@H]4[C@@]5(C)CC[C@H](O)C(C)(C)[C@@H]5CC[C@]43C)[C@@H]12` here?
**A.** 3

tested on: Enterovirus E; assay: Antiviral activity against Enterovirus E LCR-4 infected in A549 cells assessed as reduction in virus titer preincubated for 24 hrs followed by viral infection and measured after 72 hrs by microscopic analysis; assay type: functional, organism-based; conditions: LCR-4, A549

**Q.** With `C#CCNC(=O)c1ccccc1C(=O)OC[C@]12CC[C@@H](C(=C)C)[C@@H]1[C@H]1CC[C@@H]3[C@@]4(C)CC[C@H](O)C(C)(C)[C@@H]4CC[C@@]3(C)[C@]1(C)CC2` as the compound, how does the pEC50 read?
**A.** 4.70

**Q.** With `C=C(C)[C@@H]1CC[C@]2(COC(=O)c3cccc(C(=O)N4CCCCC4)c3)CC[C@]3(C)[C@H](CC[C@@H]4[C@@]5(C)CC[C@H](O)C(C)(C)[C@@H]5CC[C@]43C)[C@@H]12` as the compound, how does the pEC50 read?
**A.** 4.18

tested on: not listed separately; assay: Selectivity index, ratio of CC50 for cytotoxicity against human A549 cells to EC50 for antiviral activity against Enterovirus E LCR-4 infected in A549 cells; assay type: toxicity, cell-based; conditions: read-out: Selectivity Index

**Q.** Which selectivity ratio does the source give for `C#CCNC(=O)c1ccccc1C(=O)OC[C@]12CC[C@@H](C(=C)C)[C@@H]1[C@H]1CC[C@@H]3[C@@]4(C)CC[C@H](O)C(C)(C)[C@@H]4CC[C@@]3(C)[C@]1(C)CC2` here?
**A.** 8

**Q.** For `C=C(C)[C@@H]1CC[C@]2(COC(=O)c3cccc(C(=O)N4CCCCC4)c3)CC[C@]3(C)[C@H](CC[C@@H]4[C@@]5(C)CC[C@H](O)C(C)(C)[C@@H]5CC[C@]43C)[C@@H]12`, which selectivity ratio is on record?
**A.** 8.2

tested on: Human alphaherpesvirus 1; assay: Antiviral activity against Human herpesvirus-1 MacIntyre infected in A549 cells assessed as inhibition of viral adsorption at early stage of replication treated for 1 hr during viral infection followed by replacement with fresh medium and measured after 48 hrs by MTT assay; assay type: functional, organism-based; conditions: not given

**Q.** Which Activity does the source give for `C#CCNC(=O)c1ccccc1C(=O)OC[C@]12CC[C@@H](C(=C)C)[C@@H]1[C@H]1CC[C@@H]3[C@@]4(C)CC[C@H](O)C(C)(C)[C@@H]4CC[C@@]3(C)[C@]1(C)CC2` here?
**A.** inactive

**Q.** With `C=C(C)[C@@H]1CC[C@]2(COC(=O)c3cccc(C(=O)N4CCCCC4)c3)CC[C@]3(C)[C@H](CC[C@@H]4[C@@]5(C)CC[C@H](O)C(C)(C)[C@@H]5CC[C@]43C)[C@@H]12` as the compound, how does the Activity read?
**A.** inactive

tested on: Human adenovirus 5; assay: Antiviral activity against Human adenovirus 5 Adenoid 75 infected in A549 cells assessed as reduction in virus titer preincubated for 24 hrs followed by viral infection and measured after 72 hrs by microscopic analysis; assay type: functional, organism-based; conditions: not given

**Q.** Which Activity does the source give for `C#CCNC(=O)c1ccccc1C(=O)OC[C@]12CC[C@@H](C(=C)C)[C@@H]1[C@H]1CC[C@@H]3[C@@]4(C)CC[C@H](O)C(C)(C)[C@@H]4CC[C@@]3(C)[C@]1(C)CC2` here?
**A.** inactive

**Q.** For `C=C(C)[C@@H]1CC[C@]2(COC(=O)c3cccc(C(=O)N4CCCCC4)c3)CC[C@]3(C)[C@H](CC[C@@H]4[C@@]5(C)CC[C@H](O)C(C)(C)[C@@H]5CC[C@]43C)[C@@H]12`, which Activity is on record?
**A.** inactive

tested on: Vesicular stomatitis virus; assay: Antiviral activity against Vesicular stomatitis virus Indiana infected in A549 cells assessed as reduction in virus titer preincubated for 24 hrs followed by viral infection and measured after 72 hrs by microscopic analysis; assay type: functional, organism-based; conditions: not given

**Q.** With `C#CCNC(=O)c1ccccc1C(=O)OC[C@]12CC[C@@H](C(=C)C)[C@@H]1[C@H]1CC[C@@H]3[C@@]4(C)CC[C@H](O)C(C)(C)[C@@H]4CC[C@@]3(C)[C@]1(C)CC2` as the compound, how does the Activity read?
**A.** inactive

**Q.** With `C=C(C)[C@@H]1CC[C@]2(COC(=O)c3cccc(C(=O)N4CCCCC4)c3)CC[C@]3(C)[C@H](CC[C@@H]4[C@@]5(C)CC[C@H](O)C(C)(C)[C@@H]5CC[C@]43C)[C@@H]12` as the compound, how does the Activity read?
**A.** inactive

tested on: Enterovirus E; assay: Antiviral activity against Enterovirus E LCR-4 infected in A549 cells assessed as inhibition of viral adsorption at early stage of replication treated for 1 hr during viral infection followed by replacement with fresh medium and measured after 72 hrs by MTT assay; assay type: functional, organism-based; conditions: not given

**Q.** Which Activity does the source give for `C#CCNC(=O)c1ccccc1C(=O)OC[C@]12CC[C@@H](C(=C)C)[C@@H]1[C@H]1CC[C@@H]3[C@@]4(C)CC[C@H](O)C(C)(C)[C@@H]4CC[C@@]3(C)[C@]1(C)CC2` here?
**A.** inactive

**Q.** Which Activity does the source give for `C=C(C)[C@@H]1CC[C@]2(COC(=O)c3cccc(C(=O)N4CCCCC4)c3)CC[C@]3(C)[C@H](CC[C@@H]4[C@@]5(C)CC[C@H](O)C(C)(C)[C@@H]5CC[C@]43C)[C@@H]12` here?
**A.** inactive
